Structures are written as SMILES.

The subject of the first assay is mouse. Put plainly: Oral bioavailability: audiogenic mouse test and/or MES test. The format is in vivo. Particulars: oral administration. The procedure: The oral bioavailability was tested using the audiogenic mouse test (Audiogenic seizures, R. L. Collins; Chapter 14, pages: 347-372. In: Experimental Models of Epilepsy; By: Pupura, Penry, Tower, Woodbury, Walter, Raven Press, New York, 1972. Standard Book Number: 0-911216-26-X) and/or the MES test.
(§1) Compounds of the invention were tested in OF1 mice using the maximal electroshock test (MES Test) described in detail by Schmutz et al., Naunyn-Schmiedeberg's Arch Pharmacol 1990, 342, 61-66. Briefly, generalized tonic-clonic convulsions of the hind extremities were induced by passing electrical current through temporal electrodes (50 Hz, 18 mA, 0.2s). […] 30 mg/kg carbamazepine was used as a positive control; mice were classified as protected by a compound if the duration of the seizure lasted only 3 second or less. Five mice were used for each treatment condition and the percentage of protected mice was used as readout (i.e. a compound could give 0%, 20%, 40%, 60%, 80% or 100% protection). Compounds of the invention were given at a dose of 50 mg/kg, p.o., 1 hour prior to induction of convulsions (i.e. “pre-treatment time -1 h”). ED50 values (ED: effective dose) were calculated using GraphPad Prism, v4.02. 15 s after shock administration, mouse blood was collected for determination of compounds' blood exposure.
Regarding `Cn1nncc1-c1cc2c(=O)n(NS(C)(=O)=O)c(=O)[nH]c2cc1C(F)(F)F` [Comparative, N-(6-(1-methyl-1H-1,2,3-triazol-5-yl)-2,4-dioxo-7-trifluoromethyl-1,4-dihydro-2H-quinazolin-3-yl]-methanesulfonamide, reference compound], the “In vivo orally active” value was “No”.
For `CC(O)c1cc2c(=O)n(NS(C)(=O)=O)c(=O)[nH]c2cc1C(F)(F)F` (stereo not shown) [Compound A-1, N-[6-(1-Hydroxy-ethyl)-2,4-dioxo-7-trifluoromethyl-1,4-dihydro-2H-quinazolin-3-yl]-methanesulfonamide], the “In vivo orally active” value was “Yes”.
As for `COC(C)c1cc2c(=O)n(NS(C)(=O)=O)c(=O)[nH]c2cc1C(F)(F)F` (stereo not shown) [Compound A-2, N-[6-(1-Methoxy-ethyl)-2,4-dioxo-7-trifluoromethyl-1,4-dihydro-2H-quinazolin-3-yl]-methanesulfonamide], the “In vivo orally active” value is reported as “Yes”.
In the case of `CCC(O)c1cc2c(=O)n(NS(C)(=O)=O)c(=O)[nH]c2cc1C(F)(F)F` (stereo not shown) [Compound A-3, N-[6-(1-Hydroxy-propyl)-2,4-dioxo-7-trifluoromethyl-1,4-dihydro-2H-quinazolin-3-yl]-methanesulfonamide], the “In vivo orally active” value was “Yes”.
Still for that read-out and setting: next, `CC(C)OC(C)c1cc2c(=O)n(NS(C)(=O)=O)c(=O)[nH]c2cc1C(F)(F)F` (stereo not shown) [Compound A-4, N-[6-(1-Isopropoxy-ethyl)-2,4-dioxo-7-trifluoromethyl-1,4-dihydro-2H-quinazolin-3-yl]-methanesulfonamide]: “Yes”.
`CCOC(C)c1cc2c(=O)n(NS(C)(=O)=O)c(=O)[nH]c2cc1C(F)(F)F` (stereo not shown) [Compound A-5, N-[6-(1-Ethoxy-ethyl)-2,4-dioxo-7-trifluoromethyl-1,4-dihydro-2H-quinazolin-3-yl]-methanesulfonamide]: the “In vivo orally active” value is on record as “Yes”.
Turning to `CCCOC(CC)c1cc2c(=O)n(NS(C)(=O)=O)c(=O)[nH]c2cc1C(F)(F)F` (stereo not shown) [Compound A-6, N-[2,4-Dioxo-6-(1-propoxy-propyl)-7-trifluoromethyl-1,4-dihydro-2H-quinazolin-3-yl]-methanesulfonamide], the “In vivo orally active” value is listed as “Yes”.
The same measure, in the same setting: next, `CCC(OC(C)C)c1cc2c(=O)n(NS(C)(=O)=O)c(=O)[nH]c2cc1C(F)(F)F` (stereo not shown) [Compound A-7, N-[6-(1-isopropoxy-propyl)-2,4-dioxo-7-trifluoromethyl-1,4-dihydro-2H-quinazolin-3-yl]-methanesulfonamide]: “Yes”.
The same measure, in the same setting: next, `CCOC(CC)c1cc2c(=O)n(NS(C)(=O)=O)c(=O)[nH]c2cc1C(F)(F)F` (stereo not shown) [Compound A-13, N-[6-(1-Ethoxy-propyl)-2,4-dioxo-7-trifluoromethyl-1,4-dihydro-2H-quinazolin-3-yl]-methanesulfonamide]: “Yes”; `CC(OC1CCCC1)c1cc2c(=O)n(NS(C)(=O)=O)c(=O)[nH]c2cc1C(F)(F)F` (stereo not shown) [Compound A-14, N-[6-(1-Cyclopentyloxy-ethyl)-2,4-dioxo-7-trifluoromethyl-1,4-dihydro-2H-quinazolin-3-yl]-methanesulfonamide]: “yes”.
Take `CCCC(O)c1cc2c(=O)n(NS(C)(=O)=O)c(=O)[nH]c2cc1C(F)(F)F` (stereo not shown) [Compound A-15, N-[6-(1-Hydroxy-butyl)-2,4-dioxo-7-trifluoromethyl-1,4-dihydro-2H-quinazolin-3-yl]-methanesulfonamide]: the “In vivo orally active” value was “Yes”.
For `COCCC(O)c1cc2c(=O)n(NS(C)(=O)=O)c(=O)[nH]c2cc1C(F)(F)F` (stereo not shown) [Compound A-18, N-[6-(1-Hydroxy-3-methoxy-propyl)-2,4-dioxo-7-trifluoromethyl-1,4-dihydro-2H-quinazolin-3-yl]-methanesulfonamide], the “In vivo orally active” value was “Yes”.
As to `CS(=O)(=O)Nn1c(=O)[nH]c2cc(C(F)(F)F)c(C3CCCO3)cc2c1=O` (stereo not shown) [Compound B-2, N-[2,4-Dioxo-6-(tetrahydro-furan-2-yl)-7-trifluoromethyl-1,4-dihydro-2H-quinazolin-3-yl]-methanesulfonamide], the “In vivo orally active” value is on record as “Yes”.
On to `CS(=O)(=O)Nn1c(=O)[nH]c2cc(C(F)(F)F)c(C3CCOC3)cc2c1=O` (stereo not shown) [Compound B-3, N-[2,4-Dioxo-6-(tetrahydro-furan-3-yl)-7-trifluoromethyl-1,4-dihydro-2H-quinazolin-3-yl]-methanesulfonamide], for which the “In vivo orally active” value was “Yes”.
The same measure, in the same setting: to `COCCn1nccc1-c1cc2c(=O)n(NS(C)(=O)=O)c(=O)[nH]c2cc1C(C)C` [Compound C-1, N-{7-Isopropyl-6-[2-(2-methoxy-ethyl)-2H-pyrazol-3-yl]-2,4-dioxo-1,4-dihydro-2H-quinazolin-3-yl}-methanesulfonamide] belongs “yes”; to `CC(C)n1nccc1-c1cc2c(=O)n(NS(C)(=O)=O)c(=O)[nH]c2cc1C(F)(F)F` [Compound C-2, N-[6-(2-Isopropyl-2H-pyrazol-3-yl)-2,4-dioxo-7-trifluoromethyl-1,4-dihydro-2H-quinazolin-3-yl]-methanesulfonamide], “Yes”; to `COCCn1nccc1-c1cc2c(=O)n(NS(C)(=O)=O)c(=O)[nH]c2cc1C(F)(F)F` [Compound C-4, N-{6-[2-(2-Methoxy-ethyl)-2H-pyrazol-3-yl]-2,4-dioxo-7-trifluoromethyl-1,4-dihydro-2H-quinazolin-3-yl}-methanesulfonamide], “Yes”.
On the same count and under the same terms, next, `CS(=O)(=O)Nn1c(=O)[nH]c2cc(C(F)(F)F)c(-c3ccnn3O)cc2c1=O` [Compound C-5, N-[6-(2-Hydroxy-2H-pyrazol-3-yl)-2,4-dioxo-7-trifluoromethyl-1,4-dihydro-2H-quinazolin-3-yl]-methanesulfonamide]: “Yes”.
For `CC(C)c1cc2[nH]c(=O)n(NS(C)(=O)=O)c(=O)c2cc1-c1ccnn1C` [Compound C-7, N-[7-Isopropyl-6-(2-methyl-2H-pyrazol-3-yl)-2,4-dioxo-1,4-dihydro-2H-quinazolin-3-yl]-methanesulfonamide], the “In vivo orally active” value was “Yes”.
In the case of `Cn1nccc1-c1cc2c(=O)n(NS(C)(=O)=O)c(=O)[nH]c2cc1C(F)F` [Compound C-9, N-[7-Difluoromethyl-6-(2-methyl-2H-pyrazol-3-yl)-2,4-dioxo-1,4-dihydro-2H-quinazolin-3-yl]-methanesulfonamide], the “In vivo orally active” value is “Yes”.
Still for that read-out and setting: next, `CC(C)n1nccc1-c1cc2c(=O)n(NS(C)(=O)=O)c(=O)[nH]c2cc1C(F)F` [Compound C-10, N-[7-Difluoromethyl-6-(2-isopropyl-2H-pyrazol-3-yl)-2,4-dioxo-1,4-dihydro-2H-quinazolin-3-yl]-methanesulfonamide]: “Yes”.
On to `CCc1cc2[nH]c(=O)n(NS(C)(=O)=O)c(=O)c2cc1-c1ccnn1C` [Compound C-11, N-[7-Ethyl-6-(2-methyl-2H-pyrazol-3-yl)-2,4-dioxo-1,4-dihydro-2H-quinazolin-3-yl]-methanesulfonamide], for which the “In vivo orally active” value is “Yes”.
On the same count and under the same terms, to `CCc1cc2[nH]c(=O)n(NS(C)(=O)=O)c(=O)c2cc1-c1ccnn1CC` [Compound C-12, N-[7-Ethyl-6-(2-ethyl-2H-pyrazol-3-yl)-2,4-dioxo-1,4-dihydro-2H-quinazolin-3-yl]-methanesulfonamide] belongs “Yes”; to `CC(C)n1nccc1-c1cc2c(=O)n(NS(C)(=O)=O)c(=O)[nH]c2cc1C(C)(F)F` [Compound C-16, N-[7-(1,1-difluoro-ethyl)-6-(2-isopropyl-2H-pyrazol-3-yl)-2,4-dioxo-1,4-dihydro-2H-quinazolin-3-yl]-methanesulfonamide], “Yes”.
The same measure, in the same setting: next, `CC(F)c1cc2[nH]c(=O)n(NS(C)(=O)=O)c(=O)c2cc1-c1ccnn1C(C)C` (stereo not shown) [Compound C-17, N-[7-(1-fluoro-ethyl)-6-(2-isopropyl-2H-pyrazol-3-yl)-2,4-dioxo-1,4-dihydro-2H-quinazolin-3-yl]-methanesulfonamide]: “Yes”; `Cn1nccc1-c1cc2c(=O)n(NS(C)(=O)=O)c(=O)[nH]c2cc1C(F)(F)F` [Compound C-18, N-[6-(2-Methyl-2H-pyrazol-3-yl)-2,4-dioxo-7-trifluoromethyl-1,4-dihydro-2H-quinazolin-3-yl]-methanesulfonamide]: “Yes”.

The next assay deals with OF1 mice. Put plainly: Murine maximal electroshock test (MES Test). The format is in vivo. To be noted: p.o., pre-treatment time 1 h; protected = seizure duration 3 s or less. Here is the method:
as §1
As for `CS(=O)(=O)Nn1c(=O)[nH]c2cc(C(F)(F)F)c(C3CCCO3)cc2c1=O` [B-2 (R), N-[2,4-Dioxo-6-(tetrahydro-furan-2-yl)-7-trifluoromethyl-1,4-dihydro-2H-quinazolin-3-yl]-methanesulfonamide], the “MES-Test (1 h, po) ED50” value is on record as 12.8 mg/kg.
As to `CS(=O)(=O)Nn1c(=O)[nH]c2cc(C(F)(F)F)c(C3CCCO3)cc2c1=O` [B-2 (S), N-[2,4-Dioxo-6-(tetrahydro-furan-2-yl)-7-trifluoromethyl-1,4-dihydro-2H-quinazolin-3-yl]-methanesulfonamide], the “MES-Test (1 h, po) ED50” value amounted to 33.2 mg/kg.

The same assay, now with this note: percentage of protected mice (5 per condition) @25, p.o., 1 h.
Turning to `CS(=O)(=O)Nn1c(=O)[nH]c2cc(C(F)(F)F)c(C3CCOC3)cc2c1=O` (stereo not shown) [Compound B-3, N-[2,4-Dioxo-6-(tetrahydro-furan-3-yl)-7-trifluoromethyl-1,4-dihydro-2H-quinazolin-3-yl]-methanesulfonamide], the “MES-Test (1 h, po) protection @25” value turned out to be 20% @25^3.
Still for that read-out and setting: next, `COCCn1nccc1-c1cc2c(=O)n(NS(C)(=O)=O)c(=O)[nH]c2cc1C(C)C` [Compound C-1, N-{7-Isopropyl-6-[2-(2-methoxy-ethyl)-2H-pyrazol-3-yl]-2,4-dioxo-1,4-dihydro-2H-quinazolin-3-yl}-methanesulfonamide]: 40% @25.

Still in this assay, the particulars now being: percentage of protected mice (5 per condition) @50, p.o., 1 h.
With `Cn1nncc1-c1cc2c(=O)n(NS(C)(=O)=O)c(=O)[nH]c2cc1C(F)(F)F` [Comparative, N-(6-(1-methyl-1H-1,2,3-triazol-5-yl)-2,4-dioxo-7-trifluoromethyl-1,4-dihydro-2H-quinazolin-3-yl]-methanesulfonamide, reference compound], the “MES-Test (1 h, po) protection @50” value is on record as 0% @50.
